In patent publication US6518423B1, “Benzopiperidine derivatives” (Eisai Co., Ltd., priority 1996, dated 2003):
Structures can show the parent of a compound that is named as a salt.

| Structure (SMILES) | melting point |
| --- | --- |
| CN1c2ccc(C(N)c3ccccn3)cc2Nc2nccnc21 (centres unmarked) | > 275 °C |
| O=C(Nc1ccccc1)N(Cc1ccc2c(c1)Nc1nccnc1S2)c1cccnc1 | 208 to 210 °C |
| c1ccc(CNc2ccc(NCc3ccc4c(c3)Nc3nccnc3S4)cn2)cc1 | 208 to 211 °C |
| CN(Cc1ccc2c(c1)Nc1nccnc1S2)c1ccccc1 | 172 to 174 °C |
| O=c1ccn(Cc2ccc3c(c2)Nc2ccncc2S3)cc1 | 168 °C (dec.) |
| CN(C)c1ccc(NCc2ccc3c(c2)Nc2nccnc2S3)cn1 | 244 to 247 °C |
| N#CN=C(Cc1ccc2c(c1)Nc1nccnc1S2)NCCCC(=O)O | 217 to 218 °C (dec.) |
| c1cncc(CNCc2ccc3c(c2)Nc2nccnc2S3)c1 | 104 to 106 °C |
| CN(C)S(=O)(=O)NC1CN=C(Cc2ccc3c(c2)Nc2nccnc2S3)NC1 (centres unmarked) | 251 to 254 °C |
| CNS(=O)(=O)NCC1CN(Cc2ccc3c(c2)Nc2nccnc2S3)C1 | 173 to 176 °C |
| CC(=O)NCCC1CCN(Cc2ccc3c(c2)Nc2nccnc2S3)CC1 | 194 to 196 °C |
| c1cnc2c(c1)ccn2Cc1ccc2c(c1)Nc1nccnc1S2 | 202 to 204 °C |
| N/C(Cc1ccc2c(c1)Nc1nccnc1S2)=N\S(N)(=O)=O | > 260 °C (dec.) |
| c1ccc(Cc2ccc(NCc3ccc4c(c3)Nc3nccnc3S4)cn2)cc1 | 162 to 164 °C |
| CS(=O)(=O)NCCN1c2ccccc2Nc2nccnc21 | 218 to 222 °C |
| c1cnc2c(n1)Nc1cc(CN3CCc4ccoc4C3)ccc1S2 | 168 to 172 °C |
| CONC(Cc1ccc2c(c1)Nc1nccnc1S2)=NC#N | 172 to 174 °C |
| O=C(O)COc1ccc(C2CCN(Cc3ccc4c(c3)Nc3nccnc3S4)CC2)cc1 | 258 to 262 °C |
| O=C(O)c1ccc(-c2cn(Cc3ccc4c(c3)Nc3nccnc3S4)cn2)cc1 | 264 to 266 °C |
| Cc1ncnc2c1ncn2Cc1ccc2c(c1)Nc1nccnc1S2 | 276 to 278 °C |
| OCCCCCCOc1ccc(NCc2ccc3c(c2)Nc2nccnc2S3)cn1 | 124 to 128 °C |
| O=C(O)C1CN(Cc2ccc3c(c2)Nc2nccnc2S3)C1 | 181 to 183 °C |
| COC(C)(C)CC/C(=C\c1ncn(Cc2ccc3c(c2)Nc2nccnc2S3)c1C)C(=O)O | 202 to 204 °C |
| c1ccn(Cc2ccc3c(c2)Nc2nccnc2S3)c1 | 197 to 198 °C |
| c1ccc2c(c1)CCN(Cc1ccc3c(c1)Nc1nccnc1S3)C2 | 188 to 191 °C |

| Structure (SMILES) | melting point |
| --- | --- |
| O=C(O)CC1CC(C2CCN(Cc3ccc4c(c3)Nc3nccnc3S4)CC2)C1 (centres unmarked) | 215 to 220 °C |
| OCCN1c2ccccc2Nc2nccnc21 | 197 to 204 °C |
| CN(C)c1ncnc2c1[nH]c(=O)n2Cc1ccc2c(c1)Nc1nccnc1S2 | > 280 °C |
| C/C(=C\C1C2(C)CCCC1(C)CN(Cc1ccc3c(c1)Nc1nccnc1S3)C2)C(=O)O (centres unmarked) | 249 to 251 °C |
| O=C(O)CC1CC2CCC(C1)N2Cc1ccc2c(c1)Nc1nccnc1S2 (centres unmarked) | 155 to 158 °C |
| CCOC(=O)C#Cc1ccc2c(c1)Nc1nccnc1N2C | 232 to 235 °C |
| N#CN=CN(Cc1ccc2c(c1)Nc1nccnc1S2)Cc1ccccn1 | 208 to 210 °C |
| O=C([O-])C12CC[N+](Cc3ccc4c(c3)Nc3nccnc3S4)(CC1)CC2 | 229 to 230 °C |
| O=C(O)CCC1C2CCCC1CN(Cc1ccc3c(c1)Nc1nccnc1S3)C2 (centres unmarked) | 223 to 225 °C |
| CN1c2ccc(CO)cc2Nc2nccnc21 | 215 to 218 °C |
| OC(c1ccc(Br)nc1)c1ccc2c(c1)Nc1nccnc1S2 (centres unmarked) | 221 to 223 °C |
| CN1c2ccccc2Nc2nccnc21 | 229 to 231 °C |
| O=C(O)COc1ccc(NCc2ccc3c(c2)Nc2nccnc2S3)cn1 | 170 °C |
| O=S(=O)(NC1CCN(Cc2ccc3c(c2)Nc2nccnc2S3)CC1)N1CCOCC1 | 189 to 190 °C |
| CC(C)(O)c1ncnc2c1ncn2Cc1ccc2c(c1)Nc1nccnc1O2 | 143 to 145 °C |
| Cl.OC1CN=C(Cc2ccc3c(c2)Nc2nccnc2S3)NC1 (centres unmarked) | 156 to 163 °C |
| CCOC(=O)CC1C2CCCC1CN(Cc1ccc3c(c1)Nc1nccnc1S3)C2 (centres unmarked) [Example 17] | 142 to 143 °C |
| O=C(Nc1ccccc1)OCc1ccc2c(c1)Nc1nccnc1S2 | 237 to 240 °C |
| c1cnc2c(n1)Nc1cc(Cn3ncnn3)ccc1S2 | 206 to 208 °C |
| CNS(=O)(=O)NC1CCN(Cc2ccc3c(c2)Nc2ncccc2S3)CC1 | 216 to 218 °C |
| FC(F)(c1cccnc1)c1ccc2c(c1)Nc1nccnc1S2 | 183 to 184 °C |
| O=C(CCCC1CCN(Cc2ccc3c(c2)Nc2nccnc2S3)CC1)Nc1nnn[nH]1 | 190 to 191 °C |
| O=c1c2ccccc2[nH]n1Cc1ccc2c(c1)Nc1nccnc1S2 | > 275 °C |
| c1ccc2c(c1)nnn2Cc1ccc2c(c1)Nc1nccnc1S2 | 251 to 258 °C |
| COc1cc(C2CCN(Cc3ccc4c(c3)Nc3nccnc3S4)CC2)cc(CC(=O)O)c1OC | 138 to 140 °C |

| Structure (SMILES) | melting point |
| --- | --- |
| CN(C)C(=O)/N=C(\N)Cc1ccc2c(c1)Nc1nccnc1S2 | 158 to 161 °C |
| c1cc(-c2cn(Cc3ccc4c(c3)Nc3nccnc3S4)cn2)ccn1 | 157 to 158 °C |
| CN(C)CC#Cc1ccc2c(c1)Nc1nccnc1N2C | 188 to 189 °C |
| N#CC1CCN(Cc2ccc3c(c2)Nc2nccnc2S3)CC1 | 198 to 199 °C |
| COC1CCN(Cc2ccc3c(c2)Nc2nccnc2S3)CC1 | 172 to 174 °C |
| CS(=O)(=O)N(CC(=O)O)C1CCN(Cc2ccc3c(c2)Nc2nccnc2S3)CC1 | 210 to 215 °C |
| CCCN1c2ccccc2Nc2nccnc21 | 190 to 192 °C |
| O=C(O)CCNC(=O)Cc1ccc2c(c1)Nc1nccnc1S2 | 220 to 225 °C |
| Cl.c1cnc2c(n1)Nc1cc(CC3=NCCCN3)ccc1S2 | > 280 °C |
| c1csc(Cc2ccc3c(c2)Nc2nccnc2S3)n1 | 160 to 161 °C |
| CN(C)C(Cc1ccc2c(c1)Nc1nccnc1S2)=NC#N | 247 to 249 °C (dec.) |
| Cc1c(C(N)=O)ncn1Cc1ccc2c(c1)Nc1nccnc1S2 | > 298 °C |
| CN(C)S(=O)(=O)NCC1C2CCCC1CN(Cc1ccc3c(c1)Nc1nccnc1S3)C2 (centres unmarked) | 215 to 219 °C |
| O=S(=O)(NC1CCN(Cc2ccc3c(c2)Nc2nccnc2S3)CC1)N1CCCCC1 | 56 to 57 °C |
| N/C(Cc1ccc2c(c1)Nc1nccnc1S2)=N\NS(=O)(=O)c1ccccc1 | 226 to 227 °C |
| N#CN=C(N)NCc1ccc2c(c1)Nc1nccnc1S2 | 246 to 248 °C |
| CCOC(=O)c1c(C)ncn1Cc1ccc2c(c1)Nc1nccnc1S2 | 194 to 196 °C |
| O=C(O)CS(=O)(=O)NC1CCN(Cc2ccc3c(c2)Nc2nccnc2S3)CC1 | 200 to 210 °C |
| COCOc1ccc2c(c1)Nc1nccnc1N2C | 197 to 198 °C |
| CCCNC(=O)Cc1ccc2c(c1)Nc1nccnc1S2 | 212 °C (dec.) |
| Nc1nccn1Cc1ccc2c(c1)Nc1nccnc1S2 | 286 to 287 °C |
| Cc1ncn(Cc2ccc3c(c2)Nc2nccnc2S3)c1C(C)(C)O | 199 to 202 °C |
| NC(=O)OC1CCN(Cc2ccc3c(c2)Nc2nccnc2S3)CC1 | 139 to 142 °C |
| O=c1[nH]cnc2ncn(Cc3ccc4c(c3)Nc3nccnc3S4)c12 | > 275 °C |
| CS(=O)(=O)/N=C(\N)C1CCN(Cc2ccc3c(c2)Nc2nccnc2S3)CC1 | 204 to 209 °C |

| Structure (SMILES) | melting point |
| --- | --- |
| N=C(N)N1CCN(Cc2ccc3c(c2)Nc2nccnc2S3)CC1 | 265 to 271 °C (dec.) |
| CN1c2ccc(CN)cc2Nc2nccnc21 | 117 to 122 °C |
| CN(Cc1ccc(C(=O)O)cc1)Cc1ccc2c(c1)Nc1nccnc1S2 | 241 to 244 °C |
| FC(F)(F)c1cnc(NCc2ccc3c(c2)Nc2nccnc2S3)c(Cl)c1 | 158 to 161 °C |
| COC(=O)CNS(=O)(=O)NC1CCN(Cc2ccc3c(c2)Nc2nccnc2S3)CC1 | 194 to 196 °C |
| CN1c2ccc(/C=C/C(=O)O)cc2Nc2nccnc21 | 275 °C |
| O=C(O)C1(c2ccccc2)CCN(Cc2ccc3c(c2)Nc2nccnc2S3)CC1 | > 297 °C |
| CC(C)(O)CC1CCN(Cc2ccc3c(c2)Nc2nccnc2S3)CC1 | 187 to 188 °C |
| O=c1[nH]cnc2c1ncn2Cc1ccc2c(c1)Nc1nccnc1S2 | > 275 °C |
| CC(CC1C2CN(Cc3ccc4c(c3)Nc3nccnc3S4)CC1C(C)CC2C)C(=O)O (centres unmarked) | 110 to 115 °C |
| O=C(O)c1ccc(CN2c3ccccc3Nc3nccnc32)cc1 | 253 to 255 °C |
| O=C(O)c1ccc(C(=O)c2nccn2Cc2ccc3c(c2)Nc2nccnc2S3)cc1 | 242 to 246 °C |
| O=C(O)Cc1ccc(C2(O)CCN(Cc3ccc4c(c3)Nc3nccnc3S4)CC2)cc1 | 192 °C (dec.) |
| COC(=O)CCCN1c2ccccc2Nc2nccnc21 | 189 to 190 °C |
| COC(=O)c1ccc(-c2cn(Cc3ccc4c(c3)Nc3nccnc3S4)cn2)cc1 (as salt: trifluoroacetate) | 161 to 162 °C |
| O=C(O)CCN1CCC(NCc2ccc3c(c2)Nc2nccnc2S3)CC1 | 130 to 134 °C |
| CCOC(=O)C(C)(C)CCCCc1ccc(NCc2ccc3c(c2)Nc2nccnc2S3)cn1 | 160 to 164 °C |
| O=C(O)CCCCCCCCCCSc1ncnc2ncn(Cc3ccc4c(c3)Nc3nccnc3S4)c12 | 166 to 170 °C |
| CCOC(=O)C(C)CCC1CCN(C(=N)Cc2ccc3c(c2)Nc2nccnc2S3)CC1.Cl (centres unmarked) | 219 to 220 °C |
| CCOC1(CC(=O)O)CC2(CCN(Cc3ccc4c(c3)Nc3nccnc3S4)CC2)C1 | 226 to 227 °C |
| CS(=O)(=O)/N=C/N1CCN(Cc2ccc3c(c2)Nc2nccnc2S3)CC1 | 212 to 214 °C |
| Cl.N=C(N)Cc1ccc2c(c1)Nc1nccnc1S2 | > 280 °C |
| c1cc2ccnc-2n(Cc2ccc3c(c2)Nc2nccnc2S3)c1 | 210 to 214 °C |
